Test results as given in ChEMBL document CHEMBL5131558, “Fluorescent PARP Inhibitors Applied To Intracranial Glioblastoma: Accumulation and Persistence In Vivo” (ACS Med Chem Lett, 2022).

How the values were obtained:
U-87 MG [1] = experiment: Cytotoxicity against human U87 cells assessed as reduction in cell viability incubated for 72 hrs by alamar blue assay; type: functional, cell-based, U-87MG ATCC
U87 = experiment: Inhibition of PARP production in human U87 cells preincubated for 24 hrs followed by H2O2 addition and measured over 15 mins; type: cell-based; conditions: dose 0.1-10 µM, time 1455.0 min, DDE = dose-dependent effect
U-87 MG [2] = experiment: Cytotoxicity against human U87 cells assessed as reduction in cell viability incubated for 72 hrs in presence of rAOC-Rib by alamar blue assay; type: functional, cell-based, U-87MG ATCC
[3] = Half life of the compound; type: physicochemical
[4] = Drug uptake in tumor of mouse xenografted with human U87 MG cells assessed as increase in fluorescence signal at 25 nmol, iv measured after 24 hrs by […] imaging method; type: ADME, organism-based, Neoplasm, U-87MG ATCC; conditions: in vivo
[5] = Drug uptake in liver of mouse xenografted with human U87 MG cells at 25 nmol, iv measured after 24 hrs by fluorescence imaging analysis; type: ADME, organism-based, U-87MG ATCC; conditions: in vivo
MDA-MB-231 [6] = experiment: Cytotoxicity against human MDA-MB-231 cells assessed as reduction in cell viability incubated for 72 hrs by alamar blue assay; type: functional, cell-based; conditions: MDA-MB-231, 72 h
MDA-MB-231 [7] = experiment: Inhibition of PARP production in human MDA-MB-231 cells preincubated for 24 hrs followed by H2O2 addition and measured over 15 mins; type: cell-based; conditions: dose 0.001-10 µM, time 1455.0 min, DDE = dose-dependent effect

Compound | IC50 (U-87 MG [1]) [µM] | IC50 (MDA-MB-231 [6]) [µM] | also measured
CN(Cc1ccc(-c2[nH]c3cc(F)cc4c3c2CCNC4=O)cc1)C(=O)CCCCCCCNC(=O)CCCCCN1/C(=C/C=C2\CCCC(/C=C/C3=[N+](CCCCCC(=O)O)c4ccccc4C3(C)C)=C2Cl)C(C)(C)c2ccccc21 | 12 |  | inhibition (U87): Dde
CC1(C)C(/C=C/C2=C(Cl)C(=C/C=C3/N(CCCCCC(=O)O)c4ccccc4C3(C)C)/CCC2)=[N+](CCCCCC(=O)O)c2ccccc21 | 27 |  | IC50 (U-87 MG [2]): 28 µM; half-life [3]: 30 min
CN(Cc1ccc(-c2[nH]c3cc(F)cc4c3c2CCNC4=O)cc1)C(=O)CCCCCN1/C(=C/C=C2\CCCC(/C=C/C3=[N+](CCCCCC(=O)O)c4ccccc4C3(C)C)=C2Cl)C(C)(C)c2ccccc21 | 15 | 13 | Drug uptake [4]: Active; Drug uptake [5]: Active; inhibition (MDA-MB-231 [7]): Dde
CN(CCCCCCCCN)Cc1ccc(-c2[nH]c3cc(F)cc4c3c2CCNC4=O)cc1 | 79 |  | 
CNCc1ccc(-c2[nH]c3cc(F)cc4c3c2CCNC4=O)cc1 [RUCAPARIB] | 20 | 39 | 
